# Data published in ChEMBL document CHEMBL1155562, “Workup-dependent formation of 5-lipoxygenase inhibitory boswellic acid analogues” (J Nat Prod, 2000).
# Biological target: T1, Polyunsaturated fatty acid 5-lipoxygenase (Homo sapiens, UniProt P09917)
# T1 sequence (P09917 whole entry): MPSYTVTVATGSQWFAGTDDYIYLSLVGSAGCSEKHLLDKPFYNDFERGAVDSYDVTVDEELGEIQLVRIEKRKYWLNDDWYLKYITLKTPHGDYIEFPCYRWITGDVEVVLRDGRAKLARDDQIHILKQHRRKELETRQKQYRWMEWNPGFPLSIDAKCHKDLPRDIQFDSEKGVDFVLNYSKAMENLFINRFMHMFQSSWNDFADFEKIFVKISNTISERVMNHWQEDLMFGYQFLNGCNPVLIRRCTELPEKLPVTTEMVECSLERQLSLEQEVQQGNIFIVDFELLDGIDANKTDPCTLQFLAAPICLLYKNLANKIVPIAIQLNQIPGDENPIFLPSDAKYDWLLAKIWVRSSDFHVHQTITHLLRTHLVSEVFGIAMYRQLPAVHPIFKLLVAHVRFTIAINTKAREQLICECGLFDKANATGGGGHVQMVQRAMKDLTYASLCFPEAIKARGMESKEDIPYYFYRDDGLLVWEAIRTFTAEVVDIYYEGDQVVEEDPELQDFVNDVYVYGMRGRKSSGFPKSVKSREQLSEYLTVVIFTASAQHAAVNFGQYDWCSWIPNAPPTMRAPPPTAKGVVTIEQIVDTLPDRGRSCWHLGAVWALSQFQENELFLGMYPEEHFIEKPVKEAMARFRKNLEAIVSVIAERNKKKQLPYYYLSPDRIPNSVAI
# Assay: Inhibition of lipoxygenase 5 product formation from endogenous substrate in Calcium and ionophore-stimulated polymorphonuclear leukocyte
row,IC50,SMILES
1,3000 nM,C[C@H]1[C@H](C)CC[C@]2(C)CC[C@]3(C)C(=CC(=O)[C@@H]4[C@@]5(C)CC[C@@H](O)[C@](C)(C(=O)O)[C@@H]5CC[C@]43C)[C@H]12 [11-KETO BOSWELLIC ACID]
2,2700 nM,CC(=O)O[C@@H]1CC[C@@]2(C)[C@@H](CC[C@]3(C)[C@@H]2C(=O)C=C2[C@@H]4[C@@H](C)[C@H](C)CC[C@]4(C)CC[C@]23C)[C@@]1(C)C(=O)O [AKBA]
3,750 nM,CC(=O)O[C@@H]1CC[C@]2(C)C3=CC=C4[C@@H]5[C@@H](C)[C@H](C)CC[C@]5(C)CC[C@@]4(C)[C@]3(C)CC[C@H]2[C@@]1(C)C(=O)O
